For this experiment, the system named is S. aureus ATCC 6538. Nature of the experiment: agar diffusion test according to Burkhardt. The class given is cell-based. The settings on record: 18+2 hours at 36° C. As for the experimental part: The agar diffusion test according to Burkhardt (Burkhardt, F. (Hrsg.) Mikrobiologische Diagnostik. Georg-Thieme Verlag Stuttgart, New York 1992, p. 724) was carried out. Mueller-Hinton II-Agar in Stacker Petri dishes (Becton Dickinson Microbiology Systems, Cockeysville, USA) were employed in the test for 15. The strain S. aureus ATCC 6538 was selected as test strain. The initial seed of this test strain was chosen such that after […] of incubation, closely standing, but not confluent, single colonies had developed. After drying of the seeded culture media, the treated collagen non-woven material was applied to the agar surface. After 18+2 hours incubation at 36° C., the inhibition sphere was measured.
(Agar diffusion results depend on both activity and mobility in agar.)

In the case of Gentamycine, the “Inhibition sphere against S. aureus ATCC 6538” value is, setting by setting: (Treatment 20%) 24; (Treatment 40%) 38.

Values taken from patent US8440209B2, “Adhesive for medical applications and means for haemostasis” (Stryker Trauma GmbH, priority 2006, dated 2013).
